Results: patent US8513380B2, “Peptides for binding fibrinogen and fibrin” (Georgia Tech Research Corporation, priority 2009, dated 2013)
Where two headings read alike, the source gives them in different places. Where a SMILES comes first, the peptide text is derived from it.

Experiments:
fibrinogen fragment D = target: T1, fibrinogen fragment D (Homo sapiens, UniProt P02675+P02679); experiment: SPR binding kinetics of knob 'A' peptides on immobilized fibrinogen fragment D; conditions: for kon / koff: Langmuir 1:1 model; for kon: read-out: ka, association rate; for koff: read-out: kd, dissociation rate; for Kd: heterogeneous ligand model, KD = kd/ka
T1 construct: Fibrinogen fragment D, comprising the C-terminal polymerization pockets of fibrinogen (i.e. D-domain) without the N-terminal knobs; purchased Enzyme Research Laboratories FIB3
T1 sequence (P02679 89-432 limits assumed): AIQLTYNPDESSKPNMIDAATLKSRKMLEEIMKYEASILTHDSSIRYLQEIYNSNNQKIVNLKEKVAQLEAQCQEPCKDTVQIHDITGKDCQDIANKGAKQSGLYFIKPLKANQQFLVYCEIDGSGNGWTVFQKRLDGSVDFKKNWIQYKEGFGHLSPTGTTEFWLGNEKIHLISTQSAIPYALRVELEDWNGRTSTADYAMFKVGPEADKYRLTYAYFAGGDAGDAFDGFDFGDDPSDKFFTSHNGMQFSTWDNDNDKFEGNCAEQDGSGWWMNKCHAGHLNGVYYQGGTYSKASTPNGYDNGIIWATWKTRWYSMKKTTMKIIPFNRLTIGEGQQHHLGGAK
T1 sequence (P02675 164-491 limits assumed): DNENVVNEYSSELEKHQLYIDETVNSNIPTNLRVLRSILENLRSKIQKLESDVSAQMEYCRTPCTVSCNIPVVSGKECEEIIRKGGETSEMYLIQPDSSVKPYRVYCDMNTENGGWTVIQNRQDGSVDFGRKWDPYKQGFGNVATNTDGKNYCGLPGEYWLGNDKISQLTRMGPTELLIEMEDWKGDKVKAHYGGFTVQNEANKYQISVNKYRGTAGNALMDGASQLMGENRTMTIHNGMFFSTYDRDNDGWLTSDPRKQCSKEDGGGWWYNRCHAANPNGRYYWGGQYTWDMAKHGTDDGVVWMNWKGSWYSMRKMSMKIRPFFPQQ
T1 sequence (P02671 124-216 partner limits assumed): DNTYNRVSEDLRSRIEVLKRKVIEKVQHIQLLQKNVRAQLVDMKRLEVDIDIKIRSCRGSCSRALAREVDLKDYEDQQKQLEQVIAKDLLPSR
Method: Human fibrinogen (Enzyme Research Laboratories, South Bend, Ind.) at 2 mg/mL was digested with 0.1 U/mL human plasmin (ERL) in HEPES+CaCl2 buffer (150 mM NaCl, 5 mM CaCl2, 25 mM HEPES; pH 7.4) overnight at room temperature. Fragment D was isolated as previously described, with slight modifications (Kostelansky M S, et al. Biochemistry. 2002; 41(40):12124-12132). Briefly, the plasmin-digested fibrinogen and GPRPAA (SEQ ID NO:10) beads were incubated for 30 min, with occasional agitation. The unbound proteins and protein fragments were removed with excessive washing with HEPES+CaCl2 buffer. Fragment D was eluted with 1M sodium bromide and 50 mM sodium acetate (pH 5.3). Eluted samples were pooled together and exchanged back into HEPES+CaCl2 buffer using a centrifugal filter (MWCO 10,000). Fragment D was verified by SDS-PAGE and stored at −80° C. until use.
The Biacore 2000 (Biacore Lifesciences, GE Healthcare, Pittsburgh, Pa.) was used investigate kinetic binding constants (ka and kd) of knob ‘A’ peptide variants for fibrinogen fragment D. Briefly, fragment D was covalently immobilized to gold-coated SPR sensor chips via self-assembled monolayer (SAM) surface chemistry in order to generate a non-fouling surface with a controlled density of reactive carboxylic acid groups. Mixed SAMs were generated on gold-coated chips as described previously (Petrie T A, et al. Biomaterials. 2006; 27(31):5459-5470) by incubating with a 1 mM mixture of tri(ethylene glycol)-terminated alkanethiols (HS-(CH2)11—(OCH2CH2)3—OH; EG3; ProChimia, Poland) and carboxylic acid-terminated alkanethiols (HS-(CH2)11—(OCH2CH2)6—OCH2COOH; EG6-COOH) for 4 hrs. Upon loading the sensor chip into the Biacore 2000, the EG6-COOH in all four flow cells was activated by flowing 200 mM 1-ethyl-3-(3-dimethylaminopropyl) carbodiimide (EDC; Sigma Aldrich, St. Louis, Mo.) and 50 mM N-hydroxysuccinimide (NHS; Sigma Aldrich) (5 μL/min for 10 min). Immediately following activation, fragment D was immobilized in three flow cells (5 μL/min for 10 min) to achieve 1800-2000 resonance units (RU; 1RU˜1 pg/mm^2). Unreacted NHS groups were quenched in all four flow cells (three sample cells and one reference cell) with 20 mM ethanolamine ([…] for 10 min). Upon stabilization of the baseline signal, kinetic binding experiments were run in duplicate with the peptide variants as the flow analytes. Five varying concentrations for each peptide (0.94 μM to 150 μM) were flowed at 25 μL/min for 4 min immediately followed by a 10 min dissociation phase. Between each run, the surface was regenerated with 1M sodium bromide and 50 mM sodium acetate (pH 6.0). SPR experiments were performed three times with varying peptide injection order to rule out binding trends associated with injection sequence. Peptide solutions were incubated with tris(2-carboxyethyl)phosphine (TCEP) immobilized on agarose beads (Thermo Fisher Scientific, Inc; Rockland, Ill.) to ensure reduction of any disulfide bonds between C-terminal cysteines.
SPR sensorgrams were analyzed with the aid of Scrubber 2 and ClampXP software (Center for Biomolecular Interactions Analysis, University of Utah) (Morton T A, et al. Methods Enzymol. 1998; 295:268-294; Morton T A, et al. Anal Biochem. 1995; 227(1):176-185; Myszka D G, et al. Trends Biochem Sci. 1998; 23(4):149-150). Prior to analysis, all sensorgrams were inspected for abnormalities (i.e. baseline drift, air spikes, or irregular deviations) and excluded. Reference cell responses were subtracted from corresponding active response curves. Double-referenced curves were acquired by further subtracting the reference cell blank buffer injections from each reference-subtracted response curve (Myszka D G. Mol. Recognit. 1999; 12(5):279-284). All double-referenced curves were normalized by the molecular weight of each peptide and multiplied by 1000 to account for minor variations in response due to molecular weight. The resulting curves were then analyzed and fitted to the kinetic models. […]

fibrinogen = target: T2, fibrinogen (Homo sapiens, UniProt P02675+P02679); experiment: ELISA specificity assay: soluble Gxxx tetrapeptides competing with immobilized GPRP-FnIII9-10-C; assay type: binding; conditions: tetrapeptide in 10^2- to 10^4-fold molar excess; one-hour pre-incubation
T2 sequence (P02679 27-437 isoform P02679-2 limits assumed): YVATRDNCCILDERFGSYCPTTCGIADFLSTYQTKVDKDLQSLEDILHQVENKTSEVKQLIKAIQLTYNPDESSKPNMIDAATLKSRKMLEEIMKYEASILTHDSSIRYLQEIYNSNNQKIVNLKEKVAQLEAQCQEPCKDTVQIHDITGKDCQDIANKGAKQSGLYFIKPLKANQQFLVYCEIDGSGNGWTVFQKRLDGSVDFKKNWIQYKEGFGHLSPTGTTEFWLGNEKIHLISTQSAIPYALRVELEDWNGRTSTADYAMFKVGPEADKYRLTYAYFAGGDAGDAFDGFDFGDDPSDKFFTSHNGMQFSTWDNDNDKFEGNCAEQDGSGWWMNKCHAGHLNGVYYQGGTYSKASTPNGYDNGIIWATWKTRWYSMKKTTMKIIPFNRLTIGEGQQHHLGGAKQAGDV
T2 sequence (P02675 31-491): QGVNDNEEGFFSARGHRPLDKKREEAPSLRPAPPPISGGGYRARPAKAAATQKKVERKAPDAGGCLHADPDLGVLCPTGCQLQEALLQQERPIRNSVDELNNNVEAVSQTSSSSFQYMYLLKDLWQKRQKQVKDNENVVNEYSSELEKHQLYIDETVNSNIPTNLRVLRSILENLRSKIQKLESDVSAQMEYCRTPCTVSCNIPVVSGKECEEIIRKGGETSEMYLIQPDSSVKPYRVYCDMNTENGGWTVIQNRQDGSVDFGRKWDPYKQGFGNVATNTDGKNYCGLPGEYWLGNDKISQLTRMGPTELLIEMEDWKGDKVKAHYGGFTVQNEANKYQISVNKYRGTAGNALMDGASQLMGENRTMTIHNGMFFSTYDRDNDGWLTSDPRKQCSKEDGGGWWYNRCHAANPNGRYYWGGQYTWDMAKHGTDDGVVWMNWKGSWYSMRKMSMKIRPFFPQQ
T2 sequence (P02671 20-629 partner limits assumed): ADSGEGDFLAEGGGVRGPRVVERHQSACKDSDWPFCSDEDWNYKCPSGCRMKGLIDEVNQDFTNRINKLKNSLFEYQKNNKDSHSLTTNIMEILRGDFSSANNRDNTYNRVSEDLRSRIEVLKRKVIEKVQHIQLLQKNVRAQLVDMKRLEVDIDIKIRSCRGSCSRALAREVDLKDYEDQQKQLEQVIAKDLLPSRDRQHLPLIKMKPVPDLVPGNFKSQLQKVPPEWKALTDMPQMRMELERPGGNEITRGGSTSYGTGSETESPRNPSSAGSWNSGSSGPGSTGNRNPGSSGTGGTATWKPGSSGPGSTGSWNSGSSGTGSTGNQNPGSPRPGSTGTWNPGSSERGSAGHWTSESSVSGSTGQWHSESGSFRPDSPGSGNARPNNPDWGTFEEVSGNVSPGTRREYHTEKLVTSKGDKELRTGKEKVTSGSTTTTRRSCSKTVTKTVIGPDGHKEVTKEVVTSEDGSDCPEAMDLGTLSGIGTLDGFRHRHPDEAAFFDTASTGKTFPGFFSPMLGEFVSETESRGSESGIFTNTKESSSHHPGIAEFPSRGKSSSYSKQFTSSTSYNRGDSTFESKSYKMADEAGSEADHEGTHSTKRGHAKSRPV
Method: A modified ELISA technique was used to establish the affinity of fibrinogen for the various Gxxx-FnIII9-10-C (SEQ ID NO:20) proteins covalently immobilized on maleimide-activated plates via their C-terminal cysteines. Sulfhydryl-containing proteins/peptides were added to pre-blocked maleimide-activated 96-well plates (Pierce, Thermo Scientific, Rockford, Ill.) at 10 μg/mL in conjugation buffer (CB) comprising 150 mM NaCl, 100 mM phosphate, 10 mM EDTA, pH 7.2, with attachment occurring via maleimide-sulfhydryl (thioether) linkages. TCEP (1 mM) was added to maintain sulfhydryl groups in the reduced form. Following, unreacted maleimide groups were quenched with 20 μg/mL cysteine in CB. Human fibrinogen (25 μg/mL) was incubated with the substrates and unbound protein removed by washing. Bound fibrinogen was detected using HRP-conjugated goat anti-fibrinogen antibody (MP Biomedicals #55239) and 1-Step™ Ultra TMB-ELISA (Pierce). The TMB reaction was quenched with 1 M H2SO4 before measuring the Abs450 nm using the SPECTRAMAX® M2 (Molecular Devices, Sunnyvale, Calif.). All intervening wash steps were conducted using washing buffer (WB) comprising 150 mM NaCl, 100 mM phosphate, 0.05% Tween-20, pH 7.2; all binding steps were conducted using binding buffer (BB) comprising PBS+1% BSA. For basic affinity assays, the concentration of the fusion proteins was varied. For specificity assays, varying concentrations of Gxxx (SEQ ID NO:20) tetrapeptides (Genscript, Piscataway, N.J.) were added to the fibrinogen solution during incubation with the covalently immobilized proteins.
The tetrapeptides GPRV (SEQ ID NO:2) and GHRP (SEQ ID NO:3) are also known to bind fibrinogen via knob:pocket interactions, albeit with reduced affinities (Laudano A P, et al. Biochemistry 1980, 19(5):1013-1019).

kon (fibrinogen fragment D) [M⁻¹ s⁻¹]	koff (fibrinogen fragment D) [s⁻¹]	Kd (fibrinogen fragment D; site 1, read-out: KD1) [µM]	Kd (fibrinogen fragment D; site 2, read-out: KD2) [µM]	SPR binding response (in words) (fibrinogen fragment D)	competition with immobilized GPRP-FnIII9-10-C for binding to fibrinogen (fibrinogen)	Compound
90 ± 1	0.01073 ± 4e-05	48.5	25	–	–	CC(C)[C@H](NC(=O)[C@H](CCCNC(=N)N)NC(=O)[C@@H]1CCCN1C(=O)CN)C(=O)N[C@H](C(=O)N[C@@H](C)C(=O)N[C@@H](C)C(=O)N[C@@H](CS)C(=O)O)C(C)C [GPRVVAAC] (H-GPRVVAAC-OH)
–	–	–	–	–	not a significant competitor	GHRP (listed as Homo sapiens)
–	–	–	–	–	to a lesser extent as compared to GPRP	GPRV (listed as Homo sapiens)

The remaining lines, values behind:

Compound	kon (fibrinogen fragment D) [M⁻¹ s⁻¹]	koff (fibrinogen fragment D) [s⁻¹]	Kd (fibrinogen fragment D; site 1, read-out: KD1) [µM]	Kd (fibrinogen fragment D; site 2, read-out: KD2) [µM]	SPR binding response (in words) (fibrinogen fragment D)	competition with immobilized GPRP-FnIII9-10-C for binding to fibrinogen (fibrinogen)
N=C(N)NCCC[C@H](NC(=O)[C@H](CCC(=O)O)NC(=O)[C@@H]1CCCN1C(=O)[C@@H]1CCCN1C(=O)[C@H](CCCNC(=N)N)NC(=O)[C@@H]1CCCN1C(=O)CN)C(=O)N[C@@H](CS)C(=O)O [GPRPPERC] (H-GPRPPERC-OH)	1290 ± 30	0.00992 ± 0.00013	18.2	2.93	–	–
CC(C)[C@H](NC(=O)[C@H](CCCNC(=N)N)NC(=O)[C@@H]1CCCN1C(=O)CN)C(=O)N[C@H](C(=O)N[C@@H](CCC(=O)O)C(=O)N[C@@H](CCCNC(=N)N)C(=O)N[C@@H](CS)C(=O)O)C(C)C [GPRVVERC] (H-GPRVVERC-OH)	280 ± 4	0.02343 ± 0.00023	53.9	15.7	–	–
GPSPAAC (listed as Homo sapiens) [reference compound]	–	–	–	–	minimal binding response	–
C[C@H](NC(=O)[C@H](C)NC(=O)[C@@H]1CCCN1C(=O)[C@H](CCCNC(=N)N)NC(=O)[C@@H]1CCCN1C(=O)CN)C(=O)N[C@@H](CS)C(=O)O [GPRPAAC] (H-GPRPAAC-OH)	1140 ± 30	0.0117 ± 0.00017	4.53	8.52	–	–
C[C@H](NC(=O)[C@@H]1CCCN1C(=O)[C@H](Cc1ccccc1)NC(=O)[C@@H]1CCCN1C(=O)[C@H](CCCNC(=N)N)NC(=O)[C@@H]1CCCN1C(=O)CN)C(=O)N[C@@H](CS)C(=O)O [GPRPFPAC] (H-GPRPFPAC-OH)	12500 ± 260	0.00727 ± 8e-05	3.73	1.08	–	–
